Values belong to the compound of their own block, whether it stands above or below them.
Assays:
[1] = test system: G4 MYC (DNA, G4) TGAGGGTGGGTAGGGTGGGTAA; experiment: fluorescent intercalator displacement; details: 100 mM K+, 10 mM lithium cacodylate pH 7.3, thiazole orange displaced
[2] = test system: G4 MYC (DNA, G4) TGAGGGTGGGTAGGGTGGGTAA; experiment: CD titration; details: 100 mM Li+, 10 mM Tris-HCl pH 7.4, 20 °C, 10 µM DNA
[3] = test system: dsDNA (DNA, duplex) CAATCGGATCGAATTCGATCCGATTG; experiment: fluorescent intercalator displacement; details: 100 mM K+, 10 mM lithium cacodylate pH 7.3, thiazole orange displaced
[4] = test system: G4 KIT1 (DNA, G4) AGGGAGGGCGCTGGGAGGAGGG; experiment: CD titration; details: 100 mM Li+; 10 mM Tris-HCl pH 7.4, 20 °C; 10 µM DNA; 405 nm illuminated; G4 induction

Compound: NCCOc1cc(NC(=O)c2ccc3c(c2)/N=N/c2cc(-c4ccc5ncccc5c4)ccc2CC3)nc2ccccc12
apparent Kd [1]: 940 ± 30 nM

Compound: NCCOc1cc(NC(=O)c2ccc3c(c2)/N=N/c2cc(-c4ccc5cccnc5c4)ccc2CC3)nc2ccccc12
apparent Kd [1]: 1000 ± 30 nM

Compound: NCCOc1cc(NC(=O)c2ccc3c(c2)/N=N/c2cc(-c4cnc5ccccc5c4)ccc2CC3)nc2ccccc12
apparent Kd [1]: 970 ± 60 nM

Results, then the compound that gave them:

apparent Kd [1]: 760 ± 130 nM
Compound: NCCOc1cc(NC(=O)c2ccc3c(c2)/N=N/c2cc(-c4ccc(N5CCCCC5)cc4)ccc2CC3)nc2ccccc12

binding ([2]; dark, slight shift at 30 µM): weak | DC50 ([1]; dark): 12460 ± 650 nM | apparent Kd ([1]; dark, b14 prints error as 0.65): 4970 ± 260 nM | binding ([3]; dark): no
Compound: NCCOc1cc(NC(=O)c2ccc3c(c2)/N=N\c2cc(C4=CCNCC4)ccc2CC3)nc2ccccc12

DC50 ([1]; normalized to trans isomer): 1580 ± 50 nM | apparent Kd ([1]; derived from normalized DC50): 630 ± 20 nM | binding ([3]; highest 5 µM, 405 nm illuminated): no
Compound: NCCOc1cc(NC(=O)c2ccc3c(c2)/N=N/c2cc(C4=CCN(CCNC(=O)CCOCCOCCOCCOCCNC(=O)CCCC[C@@H]5SC[C@@H]6NC(=O)N[C@@H]65)CC4)ccc2CC3)nc2ccccc12

binding ([2]; 405 nm illuminated, parallel G4 induction): yes | binding [4]: yes | DC50 ([1]; normalized to trans isomer): 1150 ± 60 nM | apparent Kd ([1]; derived from DC50 normalized to trans isomer): 460 ± 20 nM | binding ([3]; 405 nm illuminated): no
Compound: NCCOc1cc(NC(=O)c2ccc3c(c2)/N=N/c2cc(C4=CCNCC4)ccc2CC3)nc2ccccc12

Source: article PMC12141046 (2025)
